Measurements from the NIST ThermoML archive (doi:10.1016/j.tca.2009.03.014).

Columns and labels:
[1] = excess molar enthalpy (molar enthalpy of mixing); xn = mol fraction of the nth substance listed; conditions: 308.15 K, 101 kPa, Liquid, Calvet calorimetry
[2] = xn = mol fraction of the nth substance listed; conditions: 308.15 K, 101 kPa, Liquid; for excess molar volume: Direct dilatometry; for speed of sound: Linear variable-path acoustic interferometer
[3] = 101.33 kPa, Liquid; for mass density: Pycnometric method; for speed of sound: Linear variable-path acoustic interferometer

O=C1CCCN1 [2-pyrrolidinone] + CCCO
Conditions | excess molar enthalpy [kcal/mol] | excess molar volume [m3/mol] | speed of sound [m/s]
[1], x1 = 0.0592 | 0.0594 | – | –
[1], x1 = 0.1085 | 0.0933 | – | –
[1], x1 = 0.1966 | 0.135 | – | –
[1], x1 = 0.2273 | 0.145 | – | –
[1], x1 = 0.3287 | 0.161 | – | –
[1], x1 = 0.3782 | 0.159 | – | –
[1], x1 = 0.4394 | 0.155 | – | –
[1], x1 = 0.495 | 0.146 | – | –
[1], x1 = 0.5219 | 0.139 | – | –
[1], x1 = 0.5951 | 0.125 | – | –
[1], x1 = 0.6622 | 0.108 | – | –
[1], x1 = 0.7539 | 0.0808 | – | –
[1], x1 = 0.8065 | 0.068 | – | –
[1], x1 = 0.8946 | 0.0396 | – | –
[2], x1 = 0.0349 | – | -2.3e-08 | –
[2], x1 = 0.0973 | – | -6.7e-08 | –
[2], x1 = 0.0982 | – | – | 1219.3
[2], x1 = 0.1436 | – | -1e-07 | –
[2], x1 = 0.158 | – | – | 1240.8
[2], x1 = 0.1968 | – | – | 1255
[2], x1 = 0.2052 | – | -1.38e-07 | –
[2], x1 = 0.2654 | – | -1.75e-07 | –
[2], x1 = 0.2958 | – | – | 1294.4
[2], x1 = 0.3299 | – | -2.08e-07 | –
[2], x1 = 0.3309 | – | – | 1308.9
[2], x1 = 0.3881 | – | -2.27e-07 | –
[2], x1 = 0.3952 | – | – | 1336.5
[2], x1 = 0.4485 | – | – | 1359.7
[2], x1 = 0.4495 | – | -2.44e-07 | –
[2], x1 = 0.4949 | – | – | 1380.7
[2], x1 = 0.521 | – | – | 1391.8
[2], x1 = 0.5246 | – | -2.48e-07 | –
[2], x1 = 0.5749 | – | -2.46e-07 | –
[2], x1 = 0.5951 | – | – | 1425.6
[2], x1 = 0.6516 | – | -2.27e-07 | –
[2], x1 = 0.6957 | – | – | 1470.7
[2], x1 = 0.7314 | – | – | 1485.7
[2], x1 = 0.7453 | – | -1.85e-07 | –
[2], x1 = 0.7968 | – | – | 1515.4
[2], x1 = 0.8357 | – | -1.29e-07 | –
[2], x1 = 0.8982 | – | – | 1558.4
[2], x1 = 0.9206 | – | -6.5e-08 | –

O=C1CCCN1 [2-pyrrolidinone] + CC(C)O
Conditions | excess molar enthalpy [kcal/mol] | excess molar volume [m3/mol] | speed of sound [m/s]
[1], x1 = 0.0841 | 0.11 | – | –
[1], x1 = 0.1776 | 0.187 | – | –
[1], x1 = 0.2315 | 0.21 | – | –
[1], x1 = 0.334 | 0.226 | – | –
[1], x1 = 0.3758 | 0.227 | – | –
[1], x1 = 0.4453 | 0.218 | – | –
[1], x1 = 0.501 | 0.206 | – | –
[1], x1 = 0.6009 | 0.175 | – | –
[1], x1 = 0.6811 | 0.144 | – | –
[1], x1 = 0.7151 | 0.129 | – | –
[1], x1 = 0.7626 | 0.111 | – | –
[1], x1 = 0.8338 | 0.0822 | – | –
[1], x1 = 0.8794 | 0.0634 | – | –
[1], x1 = 0.9223 | 0.0429 | – | –
[2], x1 = 0.0825 | – | -9.8e-08 | –
[2], x1 = 0.0835 | – | – | 1144.9
[2], x1 = 0.1311 | – | -1.54e-07 | –
[2], x1 = 0.1329 | – | – | 1166.9
[2], x1 = 0.1719 | – | -1.97e-07 | –
[2], x1 = 0.1976 | – | – | 1196.8
[2], x1 = 0.2365 | – | -2.59e-07 | –
[2], x1 = 0.2597 | – | – | 1225.6
[2], x1 = 0.2949 | – | -3.07e-07 | –
[2], x1 = 0.3244 | – | – | 1256
[2], x1 = 0.348 | – | -3.36e-07 | –
[2], x1 = 0.3815 | – | – | 1283.5
[2], x1 = 0.4267 | – | -3.69e-07 | –
[2], x1 = 0.4394 | – | – | 1311.6
[2], x1 = 0.4756 | – | -3.81e-07 | –
[2], x1 = 0.5031 | – | – | 1343.3
[2], x1 = 0.5682 | – | – | 1376.4
[2], x1 = 0.5684 | – | -3.74e-07 | –
[2], x1 = 0.6159 | – | – | 1401.1
[2], x1 = 0.6315 | – | -3.51e-07 | –
[2], x1 = 0.6879 | – | – | 1439.2
[2], x1 = 0.6921 | – | -3.17e-07 | –
[2], x1 = 0.7193 | – | -2.98e-07 | –
[2], x1 = 0.765 | – | – | 1479.9
[2], x1 = 0.8048 | – | -2.29e-07 | –
[2], x1 = 0.8223 | – | – | 1511.6
[2], x1 = 0.8941 | – | -1.33e-07 | –
[2], x1 = 0.9042 | – | – | 1553.8

CCCO [propan-1-ol]
[3]
Conditions | mass density [kg/m3] | speed of sound [m/s]
298.15 K | 799.28 | –
308.15 K | – | 1188.2

CCCCO [butan-1-ol]
[3]
Conditions | mass density [kg/m3] | speed of sound [m/s]
298.15 K | 809.5 | –
308.15 K | – | 1232.2

O=C1CCCN1 [2-pyrrolidinone]
[3]
Conditions | mass density [kg/m3] | speed of sound [m/s]
298.15 K | 1107.26 | –
308.15 K | – | 1603

O=C1CCCN1 [2-pyrrolidinone] + CCO
Conditions | excess molar enthalpy [kcal/mol] | excess molar volume [m3/mol] | speed of sound [m/s]
[1], x1 = 0.0647 | 0.0643 | – | –
[1], x1 = 0.1158 | 0.102 | – | –
[1], x1 = 0.2075 | 0.14 | – | –
[1], x1 = 0.2768 | 0.149 | – | –
[1], x1 = 0.338 | 0.152 | – | –
[1], x1 = 0.38 | 0.148 | – | –
[1], x1 = 0.4337 | 0.14 | – | –
[1], x1 = 0.5337 | 0.118 | – | –
[1], x1 = 0.605 | 0.104 | – | –
[1], x1 = 0.6856 | 0.0834 | – | –
[1], x1 = 0.7539 | 0.0649 | – | –
[1], x1 = 0.7929 | 0.0552 | – | –
[1], x1 = 0.8436 | 0.0455 | – | –
[1], x1 = 0.8904 | 0.0312 | – | –
[2], x1 = 0.0767 | – | -9.2e-08 | –
[2], x1 = 0.0784 | – | – | 1172.9
[2], x1 = 0.1393 | – | -1.72e-07 | –
[2], x1 = 0.1607 | – | – | 1230.8
[2], x1 = 0.1763 | – | -2.15e-07 | –
[2], x1 = 0.1963 | – | – | 1252.8
[2], x1 = 0.2471 | – | – | 1282.9
[2], x1 = 0.2676 | – | -3.07e-07 | –
[2], x1 = 0.338 | – | – | 1327.2
[2], x1 = 0.3493 | – | -3.68e-07 | –
[2], x1 = 0.3876 | – | – | 1349.4
[2], x1 = 0.4016 | – | -3.94e-07 | –
[2], x1 = 0.4337 | – | – | 1366.5
[2], x1 = 0.4713 | – | – | 1381
[2], x1 = 0.4865 | – | -4.16e-07 | –
[2], x1 = 0.5347 | – | – | 1404.3
[2], x1 = 0.5479 | – | -4.13e-07 | –
[2], x1 = 0.5985 | – | – | 1427.8
[2], x1 = 0.6015 | – | -3.94e-07 | –
[2], x1 = 0.6412 | – | – | 1444.8
[2], x1 = 0.6573 | – | -3.66e-07 | –
[2], x1 = 0.7145 | – | -3.21e-07 | –
[2], x1 = 0.7539 | – | – | 1492.3
[2], x1 = 0.7982 | – | -2.4e-07 | –
[2], x1 = 0.8064 | – | – | 1518.1
[2], x1 = 0.856 | – | -1.75e-07 | –
[2], x1 = 0.8887 | – | – | 1559.4
[2], x1 = 0.92 | – | -9.7e-08 | –

CCO [ethanol]
[3]
Conditions | mass density [kg/m3] | speed of sound [m/s]
298.15 K | 785.08 | –
308.15 K | – | 1112

O=C1CCCN1 [2-pyrrolidinone] + CCCCO
Conditions | excess molar enthalpy [kcal/mol] | excess molar volume [m3/mol] | speed of sound [m/s]
[1], x1 = 0.0824 | 0.0833 | – | –
[1], x1 = 0.1933 | 0.155 | – | –
[1], x1 = 0.2472 | 0.174 | – | –
[1], x1 = 0.3241 | 0.193 | – | –
[1], x1 = 0.3748 | 0.195 | – | –
[1], x1 = 0.4183 | 0.195 | – | –
[1], x1 = 0.4734 | 0.191 | – | –
[1], x1 = 0.5451 | 0.178 | – | –
[1], x1 = 0.5725 | 0.17 | – | –
[1], x1 = 0.6427 | 0.151 | – | –
[1], x1 = 0.7058 | 0.127 | – | –
[1], x1 = 0.7499 | 0.112 | – | –
[1], x1 = 0.8571 | 0.0658 | – | –
[1], x1 = 0.9247 | 0.0365 | – | –
[2], x1 = 0.0632 | – | – | 1237.1
[2], x1 = 0.0883 | – | -6.5e-08 | –
[2], x1 = 0.1021 | – | -7.6e-08 | –
[2], x1 = 0.1176 | – | – | 1245.9
[2], x1 = 0.186 | – | – | 1262.9
[2], x1 = 0.2306 | – | – | 1276.6
[2], x1 = 0.2423 | – | -1.47e-07 | –
[2], x1 = 0.3298 | – | -1.72e-07 | –
[2], x1 = 0.3394 | – | – | 1315.9
[2], x1 = 0.3954 | – | – | 1338.2
[2], x1 = 0.4003 | – | -1.87e-07 | –
[2], x1 = 0.4442 | – | – | 1359
[2], x1 = 0.4536 | – | -1.9e-07 | –
[2], x1 = 0.4825 | – | – | 1374.9
[2], x1 = 0.497 | – | -1.92e-07 | –
[2], x1 = 0.5269 | – | -1.88e-07 | –
[2], x1 = 0.5453 | – | – | 1402
[2], x1 = 0.5702 | – | – | 1412.4
[2], x1 = 0.5855 | – | -1.83e-07 | –
[2], x1 = 0.6229 | – | -1.76e-07 | –
[2], x1 = 0.6427 | – | – | 1441.1
[2], x1 = 0.7154 | – | -1.53e-07 | –
[2], x1 = 0.7367 | – | – | 1478
[2], x1 = 0.7617 | – | -1.36e-07 | –
[2], x1 = 0.8275 | – | – | 1512.6
[2], x1 = 0.8382 | – | -1.02e-07 | –
[2], x1 = 0.8826 | – | -7.7e-08 | –
[2], x1 = 0.9152 | – | – | 1551

CC(C)O [propan-2-ol]
[3], 298.15 K
Conditions | mass density [kg/m3] | speed of sound [m/s]
– | 780.98 | 1135.9
